Laboratory results reported in patent publication US5767113A, “Compounds useful for concurrently activating glucocorticoid-induced response and reducing multidrug resistance” (The Salk Institute For Biological Studies, priority 1995, dated 1998).
Read-outs that look alike come from different tables or passages of the source.

Experiments:
S7dexΓ -1 cells = experiment: Reversal of puromycin resistance in the S7dex-1 cell line (turbidity at 660 nm); type: cell-based, murine
Description: I. Reversal of Puromycin Resistance in the S7dexΓ -1 Cell Line
The S7dexΓ- 1 cell line is a glucocorticoid resistant derivative of the S7CD-5 cell line. It was selected on the basis of its resistance to the glucocorticoid agonist triamcinolone acetonide (5×10^-7 M) from S7CD-5 cells that had been mutagenized with N-methyl-N'-nitro-N-nitrosoguanidine. The apoptic response to glucocorticoid agonists is not elicited in the S7dexΓ -1 cells. Thus, murine S7dexΓ -1 cells were distributed (5×10^4cells/ml, 1 ml/well) into multiwell dishes and incubated for 5 days with 20 μM puromycin and increasing concentrations of test compound. At the end of the incubation period, the turbidity values (at 660 nm) for each set of cultures were measured and expressed relative to cells that were incubated without test compound. These values represent the ability of test compound to reverse S7dexΓ -1 resistance to 20 μM puromycin, as reflected by the relative amount of cell proliferation under a given set of growth conditions. The number of repetitions of each value presented in the first data column of Table 1 are indicated in parenthesis after each entry. In the Table, the ED50 values reflect the concentration of chemosensitizer that causes the Relative Turbidity value to be reduced by 50%.

CEM/VLB100 cells = experiment: Reversal of vinblastine resistance in the CEM/VLB100 cell line (turbidity at 660 nm); type: cell-based, human
Method: (§1) Human CEM/VLB100 cells were distributed (5×10^4 cells/ml, 1 ml/well) into multiwell dishes and incubated for 5 days with 30 nM vinblastine and increasing concentrations of test compound, as indicated in the Figure. At the end of the incubation period, the turbidity values (at 660 nm) for each set of cultures were measured and expressed relative to cells that were incubated without test compound. These values represent the ability of test compound, relative to control (i.e., verapamil) to reverse CEM/VLB100 resistance to 30 nM vinblastine, as reflected by the relative amount of cell proliferation under a given set of growth conditions. Each value shown in the Figures is the average of 2 separate determinations.
II. Reversal of Vinblastine Resistance in the CEM/VLB100 Cell Line
as §1, with “The CEM/VLB100 cell line is a derivative of human CEM cells, selected for resistance to vinblastine. This cell line expresses the human MDR1 gene.” for “Human”, “FIG. 2.” for “the Figure.”, “compound” for “compound, relative to control (i.e., verapamil)”, “FIG. 2” for “the Figures”, “determinations. Results are also presented in the second data column of Table 1, wherein the ED50 values reflect the concentration of chemosensitizer that causes the Relative Turbidity value to be reduced by 50%.” for “determinations.”

[1] = tested on: murine thymoma W7TB cells; experiment: Glucocorticoid agonist activity: glucocorticoid-induced apoptosis of murine thymoma W7TB cells (turbidity at 660 nm); type: cell-based; conditions: Mus musculus, 120 h, 5 days, agonist concentration that reduces Relative Turbidity to 50%, read-out: LD50 ^3
Method: FIG. 1 presents the results of an evaluation of the glucocorticoid agonist activity of several steroid analogs. The glucocorticoid-induced apoptosis of murine thymoma W7TB cells was taken as a measure of the agonist activity of steroid analogs. Murine W7TB cells were distributed (5×10^4 cells/ml/well) into multiwell dishes and incubated for 5 days with increasing concentrations of test compound, as indicated in the Figure. At the end of the incubation period, the turbidity values (at 660 nm) for each set of cultures were measured and expressed relative to cells that were incubated without test compound. These values represent the effect of test compound on the relative amount of cell proliferation under a given set of growth conditions. Each value shown in the Figures is the average of 2 separate determinations.
The glucocorticoid agonist activity of several steroid analogs was evaluated by determining the glucocorticoid-induced apoptosis of murine thymoma W7TB cells. Thus, murine W7TB cells were distributed (5×10^4 cells/ml/well) into multiwell dishes and incubated for 5 days with increasing concentrations of test compound, as indicated in FIG. 1. Dichlorisone is 1,4-pregnadiene-9α, 11β-dichloro-17α-21-diol-3,20-dione; "SA 44" is the 3,4-dimethoxy benzoic acid ester of dichlorisone; and "SA 47" is the 4-dimethylamino benzoic acid ester of dichlorisone. "17-DOD" is 17-deoxydexamethasone (i.e., 1,4-pregnadien-9α-fluoro-16αmethyl-11β,21-diol-3,20-dione); "SA 45" is the 4-dimethylamino benzoic acid ester of 17-DOD; and "SA 54" is the N-benzylcarbamate of 17-DOD.
At the end of the incubation period, the turbidity values (at 660 nm) for each set of cultures were measured and expressed relative to cells that were incubated without test compound. These values represent the effect of test compound on the relative amount of cell proliferation under a given set of growth conditions. Each value shown in FIGS. 1A and 1B is the average of 2 separate determinations. Results are also presented in the third data column of Table 1, wherein LD50 values reflect the agonist concentration that causes the Relative Turbidity value to be reduced to 50%.

[2] = read-out: ED50 ^1; S7dex1 cells, 5 days with 20 μM puromycin; chemosensitizer concentration that reduces Relative Turbidity by 50%
[3] = read-out: ED50 ^2, 5 days with 30 nM vinblastine, chemosensitizer concentration that reduces Relative Turbidity by 50%
[4] = S7dex1 cells, 5 days with 20 μM puromycin; chemosensitizer concentration that reduces Relative Turbidity by 50%; read-out: ED50 ^1
[5] = 5 days with 30 nM vinblastine, chemosensitizer concentration that reduces Relative Turbidity by 50%, read-out: ED50 ^2

| SMILES | IC50 (S7dexΓ -1 cells; [2]) | IC50 (CEM/VLB100 cells; [3]) | IC50 (S7dexΓ -1 cells; [4]) | IC50 (CEM/VLB100 cells; [5]) | IC50 [1] |
| --- | --- | --- | --- | --- | --- |
| COc1ccc(CCN(C)CCCC(C#N)(c2ccc(OC)c(OC)c2)C(C)C)cc1OC (stereo not shown) [Verapainil, verapamil, reference compound] | 0.76 µM | 1.3 µM |  |  |  |
| C[C@@H]1C[C@H]2[C@@H]3CCC4=CC(=O)C=C[C@]4(C)[C@@]3(F)[C@@H](O)C[C@]2(C)[C@H]1C(=O)COC(=O)NCc1ccccc1 [SA 54, 1,4-Preqnadien-9αfluoro-16αmethyl-11β,21-diol-3 20-dione, 21-(N-benzylcarbamate)] |  |  | 0.42 µM | 1.8 µM | 0.25 µM |
| CC(=O)[C@H]1[C@H](C)C[C@H]2[C@@H]3CCC4=CC(=O)C=C[C@]4(C)[C@@]3(F)[C@@H](O)C[C@@]21C [SA 50, 1,4-Pregnadien-9αfluoro-16αmethyl-11β-ol-3 20-dione] |  |  | 0.53 µM | > 8 µM | 0.009 µM |
| COc1ccc(C(=O)OCC(=O)[C@H]2[C@H](C)C[C@H]3[C@@H]4CCC5=CC(=O)C=C[C@]5(C)[C@@]4(F)[C@@H](O)C[C@@]32C)cc1OC [SA 43, 1,4-Pregnadien-9α-fluoro-16α-methyl-11β,21-diol-3,20-dione,21-(3 ,4-dimethoxybenzoate)] |  |  |  | 1.2 µM | 0.018 µM |
| C[C@]12C=CC(=O)C=C1CC[C@H]1[C@@H]3CC[C@](O)(C(=O)CO)[C@@]3(C)C[C@H](Cl)[C@@]12Cl [Dichlorisone, 1,4-pregnadiene-9α,11β-dichloro-17α-21-diol-3,20-dione, reference compound] | > 8 µM | > 8 µM |  |  | 0.0075 µM |
| C[C@@H]1C[C@H]2[C@@H]3CCC4=CC(=O)C=C[C@]4(C)[C@@]3(F)[C@@H](O)C[C@]2(C)[C@H]1C(=O)CO [17-DOD, 1,4-Pregnadien-9α-fluoro-16α-methyl-11β,21-diol-3, 20-dione, reference compound] |  |  | 2.7 µM | > 8 µM | 0.0053 µM |
| C[C@@H]1C[C@H]2[C@@H]3CCC4=CC(=O)C=C[C@]4(C)[C@@]3(F)[C@@H](O)C[C@]2(C)[C@H]1C(=O)COC(=O)c1ccc(N(C)C)cc1 [SA 45, 1,4-Pregnadien-9α-fluoro-16αmethyl-11β,21-diol-3 20-dione, 21-(4-dimethylaminobenzoate)] |  |  | 0.36 µM | 2.7 µM | 0.034 µM |
| CN(C)c1ccc(C(=O)OCC(=O)[C@@]2(O)CC[C@H]3[C@@H]4CCC5=CC(=O)C=C[C@]5(C)[C@@]4(Cl)[C@@H](Cl)C[C@@]32C)cc1 [SA 47, 1,4-Pregnadien-9α,11β-dichloro-17α,21-diol-3,20-dione, 21-(4-dimethylaminogenzoate)] |  |  | 0.45 µM | 1.1 µM | 0.013 µM |
| COc1ccc(C(=O)OCC(=O)[C@@]2(O)CC[C@H]3[C@@H]4CCC5=CC(=O)C=C[C@]5(C)[C@@]4(Cl)[C@@H](Cl)C[C@@]32C)cc1OC [SA 44, 1,4-Pregnadien-9α11β-dichloro-17α,21-diol-3,20-dione, 21-(3,4-dimethoxybenzoate)] |  |  | 0.44 µM | 2.5 µM | 0.014 µM |
| CC(=O)[C@H]1CC[C@H]2[C@@H]3CCC4=CC(=O)CC[C@]4(C)[C@H]3CC[C@]12C [Progesterone, reference compound] |  |  | 1.6 µM | > 8 µM | 2.4 µM |
